Experimental data from US20230055657A1, “COMBINATION TREATMENT OF LIVER DISEASES USING INTEGRIN INHIBITORS” (NOVARTIS AG, priority 2019, published 2023).
Entries after “also recorded” stand apart in the source; their conditions may differ.

Key:
[1] = system: CDAHFD NASH mouse model; test: CDAHFD NASH mouse model (prophylactic, therapeutic and 10-week studies); type: in vivo
Experimental: CDAHFD injury is a rodent model of NASH displaying liver fat accumulation, inflammation, and fibrosis (Matsumoto 2013). Three types of studies were performed: 1) prophylactic, Compound 1 in an abbreviated 3-week CDAHFD model; 2) therapeutic, Compound 1 for 6 weeks in the 11- to 12-week CDAHFD model; and 3) Compound 1 for 4 weeks in a 10-week CDAHFD model.
Compound 1 was tested therapeutically in 11- to 12-week CDAHFD injury studies at medium, high and highest doses across 3 independent studies.
Although pan-αv inhibition with CWHM12 reduced pSMAD and OHP levels, selective αvβ1 inhibition was sufficient for antifibrotic activity.

[2] = system: healthy volunteers; test: First-in-human study of safety, tolerability, PK and PD; type: in vivo; settings: single and multiple ascending dose, thus far
Description: Part A (Single Ascending Dose Study) Part A of the study was a first-in-human, randomized, double-blind, placebo-controlled, parallel-group, single ascending dose study of the safety, tolerability, and PK of Compound 1 in a maximum of 50 healthy male and female (non-childbearing potential) participants. Forty participants will be enrolled in up to 5 sequential cohorts.
Part B (Multiple Ascending Dose Study) Part B of the study is on-going and was initiated after the first 2 cohorts in Part A of the study had been completed. The doses in Part B were determined from Part A of the study and were not higher than the highest dose that was administered in Part A of the study.
Part B of the study is a randomized, double-blind, placebo-controlled, parallel-group, multiple ascending dose study of the PK, PD, safety, and tolerability of Compound 1 administered for 7 days in a maximum of 40 healthy male and female (non-childbearing potential) participants.

[3] = system: human cirrhotic NASH precision cut liver slices; test: Profibrotic gene expression and fibrosis biomarkers in precision cut liver slices; type: cell-based
Experimental: The ability of Compound 1 to inhibit the expression of profibrotic genes and decrease biomarkers of fibrosis was measured in precision cut liver slices generated using cirrhotic liver tissues from NASH patient explants and from rodent models of liver fibrosis and NASH.
Data are mean +/−standard deviation from the 5 cirrhotic NASH patients. DMSO was used as the solvent and utilized at a constant concentration (0.1%) across the different groups. […] was used as a positive control.

[4] = system: murine CCl4 model of liver fibrosis; test: 3-week murine CCl4 model of liver fibrosis; type: in vivo, mouse
Experimental: Antifibrotic activity of Compound 1 was established in an abbreviated, 3-week, murine CCl4 model of liver fibrosis. CCl4 is a hepatotoxin that when injected into mice results in liver fibrosis (Constandinou 2003). Compound 1 was dosed during the final week of injury.

[5] = therapeutic, 11- to 12-week, high and highest doses

Compound | antifibrotic activity ([1]; NASH (CDAHFD)) | expression of Ehhadh ([1]; prophylactic, 3-week, high dose, both studies) | gene expression of collagens ([1]; prophylactic, 3-week, high dose, one of the studies) | collagen area (histological analysis) ([1]; therapeutic, 11- to 12-week) | composite fibrosis score (second harmonic generation imaging): quantity and quality of collagen fibers ([1]; therapeutic, 11- to 12-week) | gene expression of Acox1 and Ehhadh ([1]; therapeutic, 11- to 12-week) | collagen gene expression (Col1α1 and Col3α1) [1, 5] | gene expression of profibrotic markers Ctgf, Mmp-2 and Timp1 [1, 5] | tolerability [2] | TIMP1 gene expression (in words) ([3]; 5 cirrhotic NASH patient explants, after two days of treatment) | COL1A1 gene expression (in words) ([3]; fibrotic liver tissue from 5 patients with NASH) | reduction of level of FBN-C in culture media ([3]; significant) | hepatic Col1α1, Col1α1, and Col3α1 expression ([4]; all doses) | levels of pSMAD3/SMAD3 in the liver ([4]; all doses, dosed during final week of injury) | antifibrotic activity ([4]; liver fibrosis (CCl4)) | reduction of OHP concentrations ([1]; 10-week CDAHFD study) | reduction of pSMAD3 levels ([1]; 10-week CDAHFD study)
CC1(C(=O)N[C@@H](CCCCCCCc2ccc3c(n2)NCCC3)C(=O)O)CCOCC1 [Compound 1, (S)-2-(4-methyltetrahydro-2H-pyran-4-carboxamido)-9-(5,6,7,8-tetrahydro-1,8-naphthyridin-2-yl)nonanoic acid] | effective antifibrotic agent; also recorded: potent and dose-dependent antifibrotic activity | significantly elevated | Significantly reduced | significant reduction | significant reduction | significantly increased | significantly reduced | significantly reduced | well tolerated | reduced; also recorded: decreased expression; also recorded: reduces expression | decreased expression; also recorded: reduces expression | 26% | significant reduction; also recorded: significantly reduced | significantly reduced | potent and dose-dependent antifibrotic activity |  | 
CC(C)(C)c1cc(Br)cc([C@H](CC(=O)O)NC(=O)CNC(=O)c2cc(O)cc(NC3=NCC(O)CN3)c2)c1 (stereo partly drawn) [CWHM12, (3S)-N-[3-hydroxy-5-[(1,4,5,6-tetrahydro-5-hydroxy-2-pyrimidinyl)amino]benzoyl]glycyl-3-[3-bromo-5-(1,1-dimethylethyl)phenyl]β-alanine, reference compound] |  |  |  |  |  |  |  |  |  |  |  |  |  |  |  | 30% | 61%
